Measured values taken from patent US20130072534A1 (LABORATORIOS DEL DR. ESTEVE, S.A., priority 2009, published 2013).

Test system: formalin-induced nociceptive behaviour
Test: Formalin test in mice (phase II licking/biting of the injected paw)
Format: in vivo, Male CD-1 mice
Details: i.p.; for efficacy of analgesic effect (in words): formalin test
Description: To assess the reliability of the efficacy and potency of the compounds and combinations tested, the nociceptive response was assessed by the formalin test. The behaviour analysed was the total time spent in licking and biting of the injected paw measured during the 15-30 min period (phase II) (Dubuisson D., et al. Pain 1977, 4, 161 and Rosland et al., Pain 1990, 42, 235).
All drugs prepared at various concentrations were dissolved in 0.5% hydroxypropyl methylcellulose in distilled water and coadministered in a volume of 10 ml/kg per mice through the intraperitoneal (i.p.) route. Control animals received the same volume of vehicle.
Male CD-1 mice weighing between 20 and 25 g (Charles River Laboratories) are used for all the experiments. The animals were housed in a temperature-controlled room (21±1° C.) with air exchange every 20 min and an automatic 12-h light/dark cycle (light from 08.00 to 20.00 h). They were fed a standard laboratory diet and tap water ad libitum until the beginning of the experiments. The experiments were performed during the light phase (09.00-15.00 h). Naive animals were used throughout.
A concentrated formalin solution was diluted with saline to the appropriate concentration (2.5%). Formalin test was performed as described in Rosland et al., Pain 1990, 42, 235, with slight modifications. 20 microliters of the formalin solution was injected subcutaneously (s.c.) into the dorsal surface of the right hind paw of the mouse, using a Hamilton microsyringe with a 301/2-gauge needle. The nociceptive behaviour (licking and/or biting) was recorded from 15 to 35 min after formalin injection as an indicator of the pain response.
The method is based on the comparison of the effect of several doses of a combination at a determined ratio with respect to the effects achieved using different doses of each of the two agents. […] The theoretical additive dose (Zadd) for a combination was then calculated and compared with the experimental ED50 of the combination (Zt) as described in Tallarida, Drug synergism 2001, 298, 865-872. […]

For Cc1ccc(-c2cc(C(F)(F)F)nn2-c2ccc(S(N)(=O)=O)cc2)cc1 [celecoxib, 4-[5-(4-methylphenyl)-3-(trifluoromethyl)pyrazol-1-yl]benzenesulfonamide], the “maximum efficacy (analgesic effect)” value (formalin test (2.5% formalin s.c. into hind paw)) was 45.78% and the “efficacy of analgesic effect (in words)” value was “ceiling effect”.

In the case of COc1ccc(C(CN(C)C)C2(O)CCCCC2)cc1 (racemic) [Venlafaxine, (rac)-1-[2-dimethylamino-1-(4-methoxyphenyl)-ethyl]cyclohexanol], the “efficacy of analgesic effect (in words)” value is reported as “full efficacy”.
